Measured values: ChEMBL document CHEMBL1201862, “PubChem BioAssay data set” (2004)
Activity calls are given as the source filed them.

Experiments:
[1] = target: Glyceraldehyde-3-phosphate dehydrogenase (Homo sapiens, UniProt P04406)
Bcl-2-related protein A1 [2] = target: T1, Bcl-2-related protein A1 (Mus musculus, UniProt Q07440); experiment: small-molecule antagonists of Bfl-1/BH3 interaction – biochemical, TR-FRET, mouse Bfl-1, confirmation (AID 621);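 also: TR-FRET binding of GST-Bfl-1 to FITC-labelled Bid peptide via terbium antibody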
T1 sequence (Q07440 whole entry): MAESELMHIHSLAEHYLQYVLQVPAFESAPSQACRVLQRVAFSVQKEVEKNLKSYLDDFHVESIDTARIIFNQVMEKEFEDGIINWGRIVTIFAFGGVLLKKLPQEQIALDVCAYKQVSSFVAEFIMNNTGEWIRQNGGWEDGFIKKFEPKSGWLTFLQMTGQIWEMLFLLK

Bcl-2-related protein A1 [3] = target: T1, Bcl-2-related protein A1; experiment: Bfl-1 binding inhibitors, SAR follow-up, biochemical, fluorescence polarization (AID 1070)
[4] = target: T2, Aryl hydrocarbon receptor (Homo sapiens, UniProt P35869); experiment: Luminescence-based cell-based high throughput dose response assay for activators of the Aryl Hydrocarbon Receptor (AHR). [Related pubchem assays: 2796 (Primary screen (AHR activators in singlicate)), 2845 (Confirmation screen (AHR activators in triplicate)), 434939 (Counterscreen (PXR activators in triplicate)), 2804 (Summary (AHR activators))]; assay type: ADME
T2 sequence (P35869 whole entry): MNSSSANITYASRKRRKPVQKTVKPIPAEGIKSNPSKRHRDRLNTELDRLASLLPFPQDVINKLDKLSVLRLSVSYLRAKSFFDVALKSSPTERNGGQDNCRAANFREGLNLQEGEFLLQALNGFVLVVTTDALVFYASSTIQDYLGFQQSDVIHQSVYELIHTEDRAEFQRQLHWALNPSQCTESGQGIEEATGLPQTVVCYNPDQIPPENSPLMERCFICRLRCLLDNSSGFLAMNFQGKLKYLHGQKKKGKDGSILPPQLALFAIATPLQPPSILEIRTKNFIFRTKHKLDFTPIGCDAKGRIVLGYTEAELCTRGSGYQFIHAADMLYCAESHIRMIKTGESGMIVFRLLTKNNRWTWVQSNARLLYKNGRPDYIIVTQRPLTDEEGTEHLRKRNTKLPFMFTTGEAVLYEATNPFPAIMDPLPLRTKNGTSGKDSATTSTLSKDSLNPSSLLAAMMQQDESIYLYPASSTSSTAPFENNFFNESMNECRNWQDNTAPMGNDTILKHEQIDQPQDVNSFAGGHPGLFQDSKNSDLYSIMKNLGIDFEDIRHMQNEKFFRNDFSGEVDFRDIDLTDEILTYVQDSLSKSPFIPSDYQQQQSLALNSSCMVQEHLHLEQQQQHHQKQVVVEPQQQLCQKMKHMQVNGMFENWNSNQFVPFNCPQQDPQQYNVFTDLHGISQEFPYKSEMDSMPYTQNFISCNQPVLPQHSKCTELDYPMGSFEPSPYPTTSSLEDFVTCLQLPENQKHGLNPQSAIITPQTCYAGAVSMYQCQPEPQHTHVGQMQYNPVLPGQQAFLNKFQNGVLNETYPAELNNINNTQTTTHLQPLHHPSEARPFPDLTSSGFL

[5] = antiviral protection against BTV-induced cell death – arbovirus, BSR cells, confirmation (AID 1250); assay type: functional;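 also: protection from viral cytopathic effect measured as cell viability by ATP luminescence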
Estrogen receptor = target: T3, Estrogen receptor (Homo sapiens, UniProt P03372); experiment: blockers of SRC-3 recruitment to ERα – biochemical, ELISA, streptavidin-HRP readout, orthogonal assay, confirmation (AID 1079)
T3 sequence (P03372 whole entry): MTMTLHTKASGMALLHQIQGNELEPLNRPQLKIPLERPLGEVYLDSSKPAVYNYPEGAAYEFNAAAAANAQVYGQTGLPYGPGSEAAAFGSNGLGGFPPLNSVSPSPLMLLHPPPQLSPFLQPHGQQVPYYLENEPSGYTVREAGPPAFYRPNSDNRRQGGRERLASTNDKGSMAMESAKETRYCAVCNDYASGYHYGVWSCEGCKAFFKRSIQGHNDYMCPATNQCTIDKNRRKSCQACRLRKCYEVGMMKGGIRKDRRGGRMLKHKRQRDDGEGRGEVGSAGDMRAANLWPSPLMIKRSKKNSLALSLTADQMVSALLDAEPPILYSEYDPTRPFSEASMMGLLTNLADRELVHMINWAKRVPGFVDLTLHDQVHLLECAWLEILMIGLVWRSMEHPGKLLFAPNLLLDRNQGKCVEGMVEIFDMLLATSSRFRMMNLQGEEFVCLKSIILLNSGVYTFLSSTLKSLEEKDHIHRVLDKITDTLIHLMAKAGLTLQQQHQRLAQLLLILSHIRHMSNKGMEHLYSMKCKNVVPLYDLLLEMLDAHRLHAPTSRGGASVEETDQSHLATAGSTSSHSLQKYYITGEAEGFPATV

[6] = target: Inward rectifier potassium channel 2 (Mus musculus, UniProt P35561); experiment: Manual electrophysiological patch clamp assay for SAR compounds that inhibit/block inward-rectifying potassium ion channel Kir2.1. [Related pubchem assays: 1843 (Summary assay for Kir2.1 inhibitor assays.), 1672 (Primary HTS of 305616 compounds where 2592 were identified as active.)]; assay type: functional
Chain of Inward rectifier potassium channel 2 (P35561 whole entry): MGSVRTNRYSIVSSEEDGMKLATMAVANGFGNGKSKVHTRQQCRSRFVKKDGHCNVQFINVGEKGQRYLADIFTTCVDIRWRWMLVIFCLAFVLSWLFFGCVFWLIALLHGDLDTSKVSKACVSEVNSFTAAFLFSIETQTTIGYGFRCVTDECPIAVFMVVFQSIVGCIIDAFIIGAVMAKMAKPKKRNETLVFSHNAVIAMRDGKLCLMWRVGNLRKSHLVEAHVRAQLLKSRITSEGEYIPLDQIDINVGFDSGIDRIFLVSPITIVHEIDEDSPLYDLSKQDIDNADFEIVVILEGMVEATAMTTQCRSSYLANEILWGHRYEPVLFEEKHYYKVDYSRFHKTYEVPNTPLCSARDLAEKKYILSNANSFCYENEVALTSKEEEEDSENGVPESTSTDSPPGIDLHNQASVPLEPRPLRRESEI

[7] = target: Sphingosine 1-phosphate receptor 2 (Homo sapiens, UniProt O95136); experiment: Dose Response Cell Based Assay for Agonists of the S1P2 Receptor of Purchased Analogues. [Related pubchem assays: 729, 843, 854, 736 ]; assay type: functional
Chain of Sphingosine 1-phosphate receptor 2 (O95136 whole entry): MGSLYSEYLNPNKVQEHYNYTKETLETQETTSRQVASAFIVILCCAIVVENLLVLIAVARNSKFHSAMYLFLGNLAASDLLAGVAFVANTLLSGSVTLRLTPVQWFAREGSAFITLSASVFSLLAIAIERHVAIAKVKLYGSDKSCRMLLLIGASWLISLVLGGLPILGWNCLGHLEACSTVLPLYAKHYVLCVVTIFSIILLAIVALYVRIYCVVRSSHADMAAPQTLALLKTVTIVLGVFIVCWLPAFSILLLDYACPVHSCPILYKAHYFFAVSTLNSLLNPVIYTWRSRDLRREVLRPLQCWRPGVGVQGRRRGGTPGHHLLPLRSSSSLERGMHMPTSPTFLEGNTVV

HeLa = experiment: Cytotoxicity counterscreen assay for transcriptional activators of heat shock protein 70 (Hsp70). [Related pubchem assays: 1203, 1252 ]; assay type: functional; settings: Homo sapiens;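 also: cells exposed to compound for 16 hours before readout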
[8] = target: T4, Microphthalmia-associated transcription factor (Homo sapiens, UniProt O75030); experiment: reducers of TRPM1 reporter luminescence, concentration series – cell-based, SK-MEL-5, cherry-picked, set 3, MITF inhibitor project, dose response (AID 493073); assay type: functional;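 also: SK-MEL-5 melanoma cells with luciferase driven by the MITF target TRPM1 promoter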
T4 sequence (O75030 whole entry): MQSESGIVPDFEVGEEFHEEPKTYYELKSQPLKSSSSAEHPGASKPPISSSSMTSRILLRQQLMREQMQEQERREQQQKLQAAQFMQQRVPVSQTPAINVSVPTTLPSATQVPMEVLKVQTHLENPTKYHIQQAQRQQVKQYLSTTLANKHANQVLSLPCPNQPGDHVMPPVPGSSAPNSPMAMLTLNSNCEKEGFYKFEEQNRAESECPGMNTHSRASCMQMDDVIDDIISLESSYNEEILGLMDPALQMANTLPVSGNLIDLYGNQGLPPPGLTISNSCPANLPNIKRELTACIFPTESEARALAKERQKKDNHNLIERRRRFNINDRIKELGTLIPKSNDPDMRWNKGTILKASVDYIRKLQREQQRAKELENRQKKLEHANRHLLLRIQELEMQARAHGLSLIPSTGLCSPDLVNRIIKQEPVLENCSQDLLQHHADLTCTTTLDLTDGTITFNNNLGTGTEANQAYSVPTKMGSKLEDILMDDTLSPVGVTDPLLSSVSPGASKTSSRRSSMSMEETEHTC

[9] = reduction of Shn3 3'UTR-driven luciferase in osteoblasts – cell-based, Clone20 osteoblasts, firefly luciferase, cherry-picked, dose response (AID 624132); assay type: functional;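 also: firefly luciferase luminescence from reporter carrying the Shn3 3'UTR in osteoblasts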
[10] = loss of viability in HepG2 cells – cell-based, CellTiter-Glo, cherry-picked, cytotoxicity control for Shn3 inhibitor project, dose response (AID 624134); assay type: functional
[11] = non-specific 3'UTR reporter inhibition in Clone20-Shn3RL – cell-based, Renilla luciferase, cherry-picked, counter-screen for Shn3 inhibitor project, dose response (AID 624133); assay type: functional
Paired box protein Pax-8 = Paired box protein Pax-8 (Homo sapiens, UniProt Q06710); experiment: PAX8 transcriptional activity inhibition in RMG-I – RMG-I cells, luciferase, cherry-pick, dose response (AID 687027); assay type: functional, cell-based;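 also: luciferase reporter driven by Pax8 target thyroperoxidase promoter measured by SteadyGlo luminescence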
Chain of Paired box protein Pax-8 (Q06710 whole entry): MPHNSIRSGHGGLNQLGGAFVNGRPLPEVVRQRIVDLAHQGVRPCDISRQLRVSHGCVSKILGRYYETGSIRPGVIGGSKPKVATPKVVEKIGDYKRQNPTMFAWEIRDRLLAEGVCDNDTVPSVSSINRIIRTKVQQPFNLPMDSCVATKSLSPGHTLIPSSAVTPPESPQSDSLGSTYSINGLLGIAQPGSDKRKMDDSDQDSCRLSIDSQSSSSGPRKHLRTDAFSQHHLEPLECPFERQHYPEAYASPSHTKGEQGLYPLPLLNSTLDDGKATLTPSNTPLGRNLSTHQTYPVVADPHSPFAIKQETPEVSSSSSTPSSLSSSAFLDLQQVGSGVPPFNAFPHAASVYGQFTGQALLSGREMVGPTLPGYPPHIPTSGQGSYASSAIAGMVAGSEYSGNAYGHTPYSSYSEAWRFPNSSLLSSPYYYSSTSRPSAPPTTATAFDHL

[12] = A High Throughput Confirmatory Assay used to Identify Novel Compounds that Inhibit Mycobacterium Tuberculosis in the absence of Glycerol.; assay type: functional
[13] = microbe, parasite or virus in culture; assay type: functional; settings: Mycobacterium tuberculosis
HEK293 [14] = experiment: cells; settings: Homo sapiens
HEK293 [15] = experiment: cells; settings: Homo sapiens; remark: listed apart in the source
Bcl-2-like protein 10 = Bcl-2-like protein 10 (Homo sapiens, UniProt Q9HD36); experiment: Concentration-response of Bcl-B inhibitors by biochemical FP with TR3 (AID 1243); assay type: functional
Chain of Bcl-2-like protein 10 (Q9HD36 whole entry): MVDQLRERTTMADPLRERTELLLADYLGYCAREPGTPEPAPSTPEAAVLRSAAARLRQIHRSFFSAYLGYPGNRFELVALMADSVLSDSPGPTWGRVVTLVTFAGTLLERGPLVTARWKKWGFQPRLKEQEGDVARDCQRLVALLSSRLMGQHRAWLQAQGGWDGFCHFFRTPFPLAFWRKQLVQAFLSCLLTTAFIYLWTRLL

[16] = Luminescence Cell-Based Dose Response to Identify Activators of 5'UTR Stem-Loop Driven Prion Protein mRNA Translation in H4-C Neuroglioblastoma Cells. [Related pubchem assays: 1829 (Project Summary), 1814 (Primary HTS)]; assay type: functional
[17] = Luminescence Cell-Based Dose Response HTS to Identify Activators of Luciferase Translation or Activity in H4 […] Cells. [Related pubchem assays: 1829 (Project Summary), 1814 (Primary HTS)]; assay type: functional
[18] = Luminescence Cell-Based Dose Response to Identify Activators of Luciferase Translation or Activity in H4-C Neuroglioblastoma Cells. [Related pubchem assays: 1829 (Project Summary), 1814 (Primary HTS)]; assay type: functional
[19] = Luminescence Cell-Based Dose Confirmation to Identify Activators of 5'UTR Stem-Loop Driven Alpha-Synuclein mRNA Translation in H4 Neuroglioblastoma Cells. [Related pubchem assays: 1829 (Project Summary), 1814 (Primary HTS)]; assay type: functional
Mucolipin-3 = Mucolipin-3 (Homo sapiens, UniProt Q8TDD5); experiment: Dose response cell-based high-throughput screening assay for agonists of the transient receptor potential channel ML3 (TRPML3). [Related pubchem assays: 1526, 1424, 1448 ]; assay type: functional
Chain of Mucolipin-3 (Q8TDD5 whole entry): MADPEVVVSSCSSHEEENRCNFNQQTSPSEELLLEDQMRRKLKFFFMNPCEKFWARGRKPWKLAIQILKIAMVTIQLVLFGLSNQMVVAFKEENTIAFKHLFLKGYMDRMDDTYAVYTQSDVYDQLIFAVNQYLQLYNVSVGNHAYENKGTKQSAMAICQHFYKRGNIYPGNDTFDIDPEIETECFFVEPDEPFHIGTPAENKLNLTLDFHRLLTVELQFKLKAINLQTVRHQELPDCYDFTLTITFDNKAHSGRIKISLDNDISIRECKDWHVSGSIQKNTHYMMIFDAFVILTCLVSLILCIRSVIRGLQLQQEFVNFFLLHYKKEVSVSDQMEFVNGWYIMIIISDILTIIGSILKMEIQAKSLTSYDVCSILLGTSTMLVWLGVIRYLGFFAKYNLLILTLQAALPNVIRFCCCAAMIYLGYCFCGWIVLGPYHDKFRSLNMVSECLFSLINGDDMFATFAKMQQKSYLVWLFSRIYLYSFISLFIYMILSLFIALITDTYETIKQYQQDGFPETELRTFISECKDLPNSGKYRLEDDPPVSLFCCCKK

Ion channel NompC = Ion channel NompC (Danio rerio, UniProt Q7T1G6); experiment: Fluorescence counterscreen assay for TRPML3 agonists: dose response cell-based high-throughput screening assay to identify agonists of the transient receptor potential channel N1 (TRPN1). [Related pubchem assays: 1526, 1424, 1448 ]; assay type: functional
Chain of Ion channel NompC (Q7T1G6 whole entry): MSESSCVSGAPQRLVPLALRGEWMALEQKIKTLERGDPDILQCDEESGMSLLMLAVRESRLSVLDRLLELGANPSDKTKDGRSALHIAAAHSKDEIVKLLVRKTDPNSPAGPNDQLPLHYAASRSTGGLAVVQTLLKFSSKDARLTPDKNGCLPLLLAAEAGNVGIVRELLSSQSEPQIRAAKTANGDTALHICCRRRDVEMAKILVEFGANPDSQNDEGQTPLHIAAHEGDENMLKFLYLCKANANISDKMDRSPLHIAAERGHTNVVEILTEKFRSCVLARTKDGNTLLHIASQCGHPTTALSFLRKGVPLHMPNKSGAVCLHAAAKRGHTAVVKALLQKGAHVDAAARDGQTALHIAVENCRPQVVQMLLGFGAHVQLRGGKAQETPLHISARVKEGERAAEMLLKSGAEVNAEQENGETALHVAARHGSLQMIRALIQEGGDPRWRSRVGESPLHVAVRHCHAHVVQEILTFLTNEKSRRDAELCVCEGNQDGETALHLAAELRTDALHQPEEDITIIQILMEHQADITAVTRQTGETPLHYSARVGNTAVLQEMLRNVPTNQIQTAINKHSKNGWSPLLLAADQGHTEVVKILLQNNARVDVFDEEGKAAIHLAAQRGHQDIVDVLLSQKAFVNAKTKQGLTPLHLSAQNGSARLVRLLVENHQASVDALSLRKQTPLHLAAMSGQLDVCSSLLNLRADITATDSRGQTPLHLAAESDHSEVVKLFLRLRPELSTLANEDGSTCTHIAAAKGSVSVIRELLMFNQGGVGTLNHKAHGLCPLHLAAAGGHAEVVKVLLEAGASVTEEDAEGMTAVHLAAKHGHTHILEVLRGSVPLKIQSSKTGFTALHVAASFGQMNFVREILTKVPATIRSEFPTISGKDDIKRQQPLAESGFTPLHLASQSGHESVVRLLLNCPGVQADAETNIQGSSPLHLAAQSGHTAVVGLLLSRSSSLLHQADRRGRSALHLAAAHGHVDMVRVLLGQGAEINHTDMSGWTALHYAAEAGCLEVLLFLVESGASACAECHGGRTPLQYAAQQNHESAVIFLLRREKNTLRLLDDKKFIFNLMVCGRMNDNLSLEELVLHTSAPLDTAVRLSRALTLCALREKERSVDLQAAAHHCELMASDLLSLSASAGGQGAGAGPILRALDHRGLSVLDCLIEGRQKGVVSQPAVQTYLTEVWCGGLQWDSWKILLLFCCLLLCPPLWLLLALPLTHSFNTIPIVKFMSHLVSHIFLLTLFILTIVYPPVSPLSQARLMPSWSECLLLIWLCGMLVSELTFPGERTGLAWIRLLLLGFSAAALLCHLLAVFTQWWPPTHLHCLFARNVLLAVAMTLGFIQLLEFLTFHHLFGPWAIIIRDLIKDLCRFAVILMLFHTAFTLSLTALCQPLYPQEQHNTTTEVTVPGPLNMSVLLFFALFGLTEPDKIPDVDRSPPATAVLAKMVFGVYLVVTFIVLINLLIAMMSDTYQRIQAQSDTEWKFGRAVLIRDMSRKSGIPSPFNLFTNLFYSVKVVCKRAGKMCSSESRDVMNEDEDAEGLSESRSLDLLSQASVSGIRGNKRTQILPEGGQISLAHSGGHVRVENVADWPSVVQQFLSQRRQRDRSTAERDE

BJ [20] = experiment: BJ-TERT fibroblast viability loss – cell-based, RAS-independent, luminescence, dose response (AID 1933); assay type: functional; settings: Homo sapiens
BJ [21] = experiment: cells; assay type: functional, cell-based; settings: Homo sapiens
[22] = Luminescence-based dose response cell-based high throughput screening assay for cytotoxic compounds using the IEC-6 intestinal epithelial cell line. [Related pubchem assays: 1858 (Summary AID.), 1825 (Counterscreen.), 1907 (Confirmation screen.)]; assay type: functional
BJ [23] = experiment: BJ-TERT-LT-ST fibroblast viability loss – cell-based, RAS-independent, luminescence, dose response (AID 1935); assay type: functional; settings: Homo sapiens;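 also: BJ fibroblasts immortalized with TERT plus LT and ST oncogenes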
[24] = DRD fibroblast viability loss – cell-based, non-viral oncogenic, luminescence, dose response (AID 1934); assay type: functional; settings: Homo sapiens
BJ [25] = experiment: growth inhibition of engineered Ras-driven BJ cells – cell-based, alamar blue fluorescence, cherrypicked samples, dose response (AID 2631); assay type: functional; settings: Homo sapiens;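 also: confirmatory dose-response assay in RAS-dependent BJ fibroblasts engineered with TERT, LT and ST, with cytotoxicity read by fluorescence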
Vero = experiment: cells; assay type: functional; settings: Chlorocebus sabaeus
[26] = target: Mothers against decapentaplegic homolog 3 (Homo sapiens, UniProt P84022); experiment: inhibitors of SMAD-driven TGF-beta signaling – dose response (AID 715); assay type: functional
Chain of Mothers against decapentaplegic homolog 3 (P84022 whole entry): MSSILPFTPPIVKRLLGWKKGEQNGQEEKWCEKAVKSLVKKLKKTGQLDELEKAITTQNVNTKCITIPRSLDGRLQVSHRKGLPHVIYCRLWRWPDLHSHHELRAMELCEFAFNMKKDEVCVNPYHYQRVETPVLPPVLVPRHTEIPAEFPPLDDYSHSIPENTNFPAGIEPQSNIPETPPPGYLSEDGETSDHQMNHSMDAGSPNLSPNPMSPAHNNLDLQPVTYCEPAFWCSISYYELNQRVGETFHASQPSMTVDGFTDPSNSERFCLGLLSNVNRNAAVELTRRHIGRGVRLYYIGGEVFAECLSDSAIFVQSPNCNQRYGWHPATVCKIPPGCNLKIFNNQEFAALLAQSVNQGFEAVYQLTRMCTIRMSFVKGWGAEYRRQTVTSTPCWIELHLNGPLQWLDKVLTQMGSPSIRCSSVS

[27] = target: Protein-tyrosine kinase 2-beta (Homo sapiens, UniProt Q14289);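 also: potency of inhibitors of PYK2 kinase phosphorylation of poly-GT substrate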
[28] = target: Eukaryotic translation initiation factor 4E (Mus musculus, UniProt P63073); experiment: blockers of eIF4G binding by eIF4E – biochemical, TR-FRET, dose response (AID 855); assay type: functional;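 also: potency for disrupting eIF4E binding to eIF4GI seen as loss of FRET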
Chain of Eukaryotic translation initiation factor 4E (P63073 whole entry): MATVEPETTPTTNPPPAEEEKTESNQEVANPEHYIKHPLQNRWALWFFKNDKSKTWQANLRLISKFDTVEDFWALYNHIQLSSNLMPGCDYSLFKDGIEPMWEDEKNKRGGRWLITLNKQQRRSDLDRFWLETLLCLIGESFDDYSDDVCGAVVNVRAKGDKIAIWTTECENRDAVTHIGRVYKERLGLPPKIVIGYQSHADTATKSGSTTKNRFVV

Chain of Glyceraldehyde-3-phosphate dehydrogenase (P04406 whole entry): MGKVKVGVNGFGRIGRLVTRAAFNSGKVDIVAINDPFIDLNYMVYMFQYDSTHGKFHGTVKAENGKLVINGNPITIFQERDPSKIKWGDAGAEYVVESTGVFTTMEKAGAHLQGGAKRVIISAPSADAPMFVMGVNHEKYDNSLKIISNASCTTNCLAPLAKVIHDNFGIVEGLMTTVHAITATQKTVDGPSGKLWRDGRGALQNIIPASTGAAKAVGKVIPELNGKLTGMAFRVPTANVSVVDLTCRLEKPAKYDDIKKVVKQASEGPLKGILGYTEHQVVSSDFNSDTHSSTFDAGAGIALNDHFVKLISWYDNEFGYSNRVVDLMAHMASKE

SMILES: COc1ccc(N2CCN(C3=C(Cl)C(=O)N(c4ccc(Cl)c(Cl)c4)C3=O)CC2)cc1
- IC50 [1]: > 100 µM (not active)
- IC50 (Bcl-2-related protein A1 [2]): 6.79 µM (active)
- IC50 (Bcl-2-related protein A1 [3]): 1.25 µM (active)

SMILES: Cc1ccc(-n2c(=O)[nH]cc(C(=O)Nc3ccc4c(c3)OCO4)c2=O)cc1C
- EC50 [4]: 7.75 µM (active)

SMILES: CCCC1=NN2C(=N)/C(=C/c3c[nH]c4ccccc34)C(=O)N=C2S1
- IC50 [5]: 64.6 µM (active)

SMILES: CC(C)(C)OC(=O)[C@@H](CCC(=O)N1CCN(c2ccc(C#N)cc2)CC1)n1c(=S)[nH]c2ccccc2c1=O
- IC50 (Estrogen receptor): 0.08 µM (not active)

SMILES: COc1ccc(CNC2CCCc3ccccc32)cc1 (stereo not given)
- IC50 [6]: 3.59 µM (active)

SMILES: Cc1cc(C(=O)Cn2cnc3c2c(=O)n(C)c(=O)n3C)c(C)n1Cc1ccccc1
- EC50 [7]: > 30 µM (not active)

SMILES: CC(C)C(=O)N1CCN(c2ccc(NC(=O)c3ccc([N+](=O)[O-])o3)cc2Cl)CC1
- CC50 (HeLa): 3.45 µM (active)
- AC50 [8]: 7.05 µM (active)
- AC50 [9]: 0.954 µM (active)
- AC50 [10]: 27.8 µM (active)
- AC50 [11]: 8.27 µM (active)
- AC50 (Paired box protein Pax-8): 3.25 µM (active)

SMILES: CCCCC(=O)/C=C/n1c(=S)oc2ccccc21
- IC50 [12]: > 100 µM (active)
- CC50 [13]: 19.8 µM (active)
- EC50 (HEK293 [14]): > 59.6 µM (inactive)
- EC50 (HEK293 [15]): > 2.21 µM (active)

SMILES: O=C(O)c1ccc([N+](=O)[O-])c2c1NC(c1ccccc1)C1CC=CC21 (stereo not given)
- EC50 (Bcl-2-like protein 10): 3.92 µM (active)

SMILES: C=CCSc1nnc2c3cccc(C)c3nc-2[nH]1
- EC50 [16]: 0.317 µM (active)
- EC50 [17]: < 0.1 µM (active)
- EC50 [18]: 0.31 µM (active)
- EC50 [19]: 0.311 µM (active)

SMILES: O=S(=O)(Nc1ccccc1N1CCCCC1)c1cccs1
- EC50 (Mucolipin-3): 2.3 µM (active)
- EC50 (Ion channel NompC): > 29.9 µM (not active)

SMILES: Cc1ccc(/C=N/NC(=O)c2[nH]nc3c2CCCC3)cc1
- EC50 (BJ [20]): 0.31 µM (inconclusive)
- EC50 (BJ [21]): 0.382 µM (active)
- IC50 [22]: 0.32 µM (active)
- EC50 (BJ [23]): 0.37 µM (inconclusive)
- EC50 [24]: 0.711 µM (inconclusive)
- EC50 (BJ [25]): < 0.104 µM (active)
- CC50 (Vero): 0.24 µM (active)

SMILES: O=[N+]([O-])c1cc(/C=N\Nc2nccs2)ccc1O
- IC50 [26]: 30.9 µM (not active)
- IC50 [27]: 3.15 µM (active)
- IC50 [28]: 10.8 µM (active)
